Results reported in ChEMBL document CHEMBL6103654, “Design, Biological Characterization, and Discovery of Capromorelin Derivatives as Oral Growth Hormone Secretagogue Receptor Type 1a Agonist for the Treatment of Growth Hormone Deficiency” (J Med Chem, 2025).
Calls of active or inactive are those of the source. No cut-off for these calls is given here.

Legend:
[1] = Agonist activity at dog GHSR expressed in CHO cells incubated for 60 min by FLIPR assay; assay type: cell-based; conditions: 1 h
[2] = Cmax in male Sprague-Dawley rat at 2 mg/kg, po administered as single dose measured after 4 hrs; assay type: ADME, organism-based; conditions: in vivo
Rattus norvegicus [3] = assay: Induction of growth hormone level in Juvenile Sprague-Dawley rat blood at 0.1 mg/kg, po administered as single dose measured immediately by ELISA method (reference value: 28.5+/-8.7 ng/mL); assay type: functional
Rattus norvegicus [4] = assay: Induction of growth hormone level in Juvenile Sprague-Dawley rat blood at 0.1 mg/kg, po administered as single dose measured after 20 mins by ELISA method (reference value: 29.1+/-8.6 ng/mL); assay type: functional
Rattus norvegicus [5] = assay: Induction of growth hormone level in Juvenile Sprague-Dawley rat blood by measuring AUC(0 to 40 mins) at 0.1 mg/kg, po administered as single dose by ELISA method (reference value: 20.2+/-4.3 ng/mL); assay type: functional, organism-based; conditions: time 4.0 hrs
Rattus norvegicus [6] = assay: Induction of growth hormone level in Juvenile Sprague-Dawley rat blood at 0.2 mg/kg, po administered as single dose measured after 1 hr by ELISA method (reference value: 45.2+/-12.5 ng/mL); assay type: functional
Rattus norvegicus [7] = assay: Induction of growth hormone level in Juvenile Sprague-Dawley rat blood by measuring AUC(0 to 40 mins) at 0.2 mg/kg, po administered as single dose by ELISA method (reference value: 20.2+/-4.3 ng/mL); assay type: functional, organism-based
Rattus norvegicus [8] = assay: Induction of growth hormone level in Juvenile Sprague-Dawley rat blood at 0.5 mg/kg, po administered as single dose measured after 10 mins by ELISA method (reference value: 23.2+/-5.6 ng/mL); assay type: functional
Rattus norvegicus [9] = assay: Induction of growth hormone level in Juvenile Sprague-Dawley rat blood at 0.5 mg/kg, po administered as single dose measured after 4 hrs by ELISA method (reference value: 32.5+/-4.5 ng/mL); assay type: functional
Rattus norvegicus [10] = assay: Induction of growth hormone level in adult Sprague-Dawley rat blood at 0.1 mg/kg, po administered as single dose measured immediately by ELISA method (reference value: 12.6+/-4.4 ng/mL); assay type: functional
Rattus norvegicus [11] = assay: Induction of growth hormone level in adult Sprague-Dawley rat blood at 0.2 mg/kg, po administered as single dose measured after 10 mins by ELISA method (reference value: 13.7+/-7.2 ng/mL); assay type: functional
Rattus norvegicus [12] = assay: Induction of growth hormone level in adult Sprague-Dawley rat blood at 0.2 mg/kg, po administered as single dose measured after 20 mins by ELISA method (reference value: 4.9+/-1.1 ng/mL); assay type: functional
Rattus norvegicus [13] = assay: Induction of growth hormone level in adult Sprague-Dawley rat blood at 0.5 mg/kg, po administered as single dose measured after 10 mins by ELISA method (reference value: 13.7+/-7.2 ng/mL); assay type: functional
Rattus norvegicus [14] = assay: Induction of growth hormone level in adult Sprague-Dawley rat blood at 0.5 mg/kg, po administered as single dose measured after 40 mins by ELISA method (reference value: 14.4+/-6.9 ng/mL); assay type: functional
Rattus norvegicus [15] = assay: Induction of growth hormone level in 6 week-old female Sprague-Dawley rat assessed as increase in body length at 2.5 mg/kg, po measured after 10 days; assay type: functional, organism-based; conditions: time 10.0 day
Rattus norvegicus [16] = assay: Induction of growth hormone level in 6 week-old female Sprague-Dawley rat assessed as increase in body weight at 2.5 mg/kg, po measured after 10 days; assay type: functional, organism-based; conditions: time 10.0 day
[17] = Half life in male monkey at 0.5 mg/kg, iv administered as single dose measured after 4 hrs; assay type: ADME, organism-based, Macaca mulatta; conditions: rhesus monkey, in vivo
[18] = Cmax in male monkey at 2 mg/kg, po administered as single dose measured after 4 hrs; assay type: ADME, organism-based, Macaca mulatta; conditions: rhesus monkey, in vivo
[19] = Clearance in male dog plasma at 0.5 mg/kg, iv administered as single dose measured after 4 hrs; assay type: ADME, organism-based, Canis lupus familiaris
[20] = Half life in male dog at 2 mg/kg, po administered as single dose measured after 4 hrs; assay type: ADME, organism-based, Canis lupus familiaris; conditions: in vivo
[21] = Tmax in male dog at 2 mg/kg, po administered as single dose measured after 4 hrs; assay type: ADME, organism-based, Canis lupus familiaris; conditions: in vivo
[22] = Volume of distribution in male mouse at 1 mg/kg, iv administered as single dose measured after 4 hrs; assay type: ADME, organism-based; conditions: in vivo
[23] = Cmax in male mouse at 2 mg/kg, po administered as single dose measured after 4 hrs; assay type: ADME, organism-based; conditions: in vivo
[24] = Metabolic stability in dog liver microsome assessed as hepatic clearance at 1 uM measured upto 60 mins in presence of NADPH by LC-MS/MS analysis; assay type: ADME, Canis lupus familiaris; conditions: liver microsomes, read-out: CLH
[25] = Metabolic stability in rat liver microsome assessed as intrinsic clearance at 1 uM measured upto 60 mins in presence of NADPH by LC-MS/MS analysis; assay type: ADME; conditions: liver microsomes, read-out: CLH
[26] = Metabolic stability in rat liver microsome assessed as hepatic clearance at 1 uM measured upto 60 mins in presence of NADPH by LC-MS/MS analysis; assay type: ADME; conditions: liver microsomes, read-out: CLH
[27] = Plasma protein binding in human assessed as unbound fraction measured after 6 hrs by dialysis method; assay type: ADME, cell-free
Cytochrome P450 3A4 [28] = target: T1, Cytochrome P450 3A4 (Homo sapiens, UniProt P08684); assay: Inhibition of CYP3A4 in human liver microsome using midazolam as substrate incubated for 5 min in presence of NADPH by UPLC-MS/MS analysis; assay type: ADME, microsomes
Cytochrome P450 3A4 [29] = target: T1, Cytochrome P450 3A4; assay: Inhibition of CYP3A4 in human liver microsome using testosterone as substrate incubated for 5 min in presence of NADPH by UPLC-MS/MS analysis; assay type: ADME, microsomes
Cytochrome P450 2C9 = Cytochrome P450 2C9 (Homo sapiens, UniProt P11712); assay: Inhibition of CYP2C9 in human liver microsome incubated for 5 min in presence of NADPH by UPLC-MS/MS analysis; assay type: ADME, microsomes
Cytochrome P450 2D6 = Cytochrome P450 2D6 (Homo sapiens, UniProt P10635); assay: Inhibition of CYP2D6 in human liver microsome incubated for 5 min in presence of NADPH by UPLC-MS/MS analysis; assay type: ADME, microsomes
[30] = target: Voltage-gated inwardly rectifying potassium channel KCNH2 (Homo sapiens, UniProt Q12809); assay: Inhibition of human ERG expressed in HEK293 cells by patch clamp assay; assay type: toxicity, cell-based
[31] = Genotoxicity in Salmonella typhimurium TA98 by Ames test; assay type: toxicity; conditions: salmonella enterica subsp. enterica serovar typhimurium
[32] = Genotoxicity in Salmonella typhimurium TA100 by Ames test; assay type: toxicity; conditions: salmonella enterica subsp. enterica serovar typhimurium
[33] = Genotoxicity in Salmonella typhimurium TA1535 by Ames test; assay type: toxicity; conditions: salmonella enterica subsp. enterica serovar typhimurium
[34] = Toxicity in Sprague-Dawley rat assessed as effect on lymphocyte containing white pulp around central arteriole at 10 to 100 mg/kg, po administered once daily for 14 days by H&E staining based analysis; assay type: organism-based; conditions: in vivo, 336 h, dose 10-100 mg/kg, time 14 day
[35] = Toxicity in Sprague-Dawley rat assessed as effect on red pulp with a network of sinuses filled with erythrocytes at 10 to 100 mg/kg, po administered once daily for 14 days by H&E staining based analysis; assay type: organism-based; conditions: in vivo, 336 h, dose 10-100 mg/kg, time 14 day
[36] = Toxicity in Sprague-Dawley rat assessed as effect on hepatic cords at 10 to 100 mg/kg, po administered once daily for 14 days; assay type: organism-based; conditions: in vivo, 336 h, dose 10-100 mg/kg, time 14 day

T1 sequence (P08684 whole entry): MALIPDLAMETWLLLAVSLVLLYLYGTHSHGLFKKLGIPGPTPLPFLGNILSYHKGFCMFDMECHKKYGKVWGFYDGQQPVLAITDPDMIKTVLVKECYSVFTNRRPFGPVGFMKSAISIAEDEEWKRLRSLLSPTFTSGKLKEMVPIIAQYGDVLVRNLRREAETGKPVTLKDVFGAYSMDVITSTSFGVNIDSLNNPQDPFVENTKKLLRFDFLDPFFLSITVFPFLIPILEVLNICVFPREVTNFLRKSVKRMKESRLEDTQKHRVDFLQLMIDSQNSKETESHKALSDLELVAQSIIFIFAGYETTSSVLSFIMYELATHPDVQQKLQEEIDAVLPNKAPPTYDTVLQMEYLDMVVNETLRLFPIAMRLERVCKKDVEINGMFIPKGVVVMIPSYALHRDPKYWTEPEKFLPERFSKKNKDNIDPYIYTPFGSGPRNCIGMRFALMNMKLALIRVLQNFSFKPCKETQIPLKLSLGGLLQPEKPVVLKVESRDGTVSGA
Chain of Cytochrome P450 2D6 (P10635 whole entry): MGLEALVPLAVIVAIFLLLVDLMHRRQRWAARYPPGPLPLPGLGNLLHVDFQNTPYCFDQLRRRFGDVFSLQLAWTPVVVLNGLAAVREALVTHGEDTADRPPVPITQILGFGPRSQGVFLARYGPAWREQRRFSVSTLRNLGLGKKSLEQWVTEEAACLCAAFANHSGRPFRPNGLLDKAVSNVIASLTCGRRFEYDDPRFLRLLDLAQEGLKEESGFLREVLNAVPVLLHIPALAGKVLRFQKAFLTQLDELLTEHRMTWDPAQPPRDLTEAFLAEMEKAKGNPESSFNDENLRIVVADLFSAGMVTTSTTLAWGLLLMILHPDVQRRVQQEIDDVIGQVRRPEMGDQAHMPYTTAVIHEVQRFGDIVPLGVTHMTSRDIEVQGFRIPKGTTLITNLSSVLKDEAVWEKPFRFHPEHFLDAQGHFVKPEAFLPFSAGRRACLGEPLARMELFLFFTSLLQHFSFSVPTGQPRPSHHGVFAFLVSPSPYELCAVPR
Chain of Voltage-gated inwardly rectifying potassium channel KCNH2 (Q12809 whole entry): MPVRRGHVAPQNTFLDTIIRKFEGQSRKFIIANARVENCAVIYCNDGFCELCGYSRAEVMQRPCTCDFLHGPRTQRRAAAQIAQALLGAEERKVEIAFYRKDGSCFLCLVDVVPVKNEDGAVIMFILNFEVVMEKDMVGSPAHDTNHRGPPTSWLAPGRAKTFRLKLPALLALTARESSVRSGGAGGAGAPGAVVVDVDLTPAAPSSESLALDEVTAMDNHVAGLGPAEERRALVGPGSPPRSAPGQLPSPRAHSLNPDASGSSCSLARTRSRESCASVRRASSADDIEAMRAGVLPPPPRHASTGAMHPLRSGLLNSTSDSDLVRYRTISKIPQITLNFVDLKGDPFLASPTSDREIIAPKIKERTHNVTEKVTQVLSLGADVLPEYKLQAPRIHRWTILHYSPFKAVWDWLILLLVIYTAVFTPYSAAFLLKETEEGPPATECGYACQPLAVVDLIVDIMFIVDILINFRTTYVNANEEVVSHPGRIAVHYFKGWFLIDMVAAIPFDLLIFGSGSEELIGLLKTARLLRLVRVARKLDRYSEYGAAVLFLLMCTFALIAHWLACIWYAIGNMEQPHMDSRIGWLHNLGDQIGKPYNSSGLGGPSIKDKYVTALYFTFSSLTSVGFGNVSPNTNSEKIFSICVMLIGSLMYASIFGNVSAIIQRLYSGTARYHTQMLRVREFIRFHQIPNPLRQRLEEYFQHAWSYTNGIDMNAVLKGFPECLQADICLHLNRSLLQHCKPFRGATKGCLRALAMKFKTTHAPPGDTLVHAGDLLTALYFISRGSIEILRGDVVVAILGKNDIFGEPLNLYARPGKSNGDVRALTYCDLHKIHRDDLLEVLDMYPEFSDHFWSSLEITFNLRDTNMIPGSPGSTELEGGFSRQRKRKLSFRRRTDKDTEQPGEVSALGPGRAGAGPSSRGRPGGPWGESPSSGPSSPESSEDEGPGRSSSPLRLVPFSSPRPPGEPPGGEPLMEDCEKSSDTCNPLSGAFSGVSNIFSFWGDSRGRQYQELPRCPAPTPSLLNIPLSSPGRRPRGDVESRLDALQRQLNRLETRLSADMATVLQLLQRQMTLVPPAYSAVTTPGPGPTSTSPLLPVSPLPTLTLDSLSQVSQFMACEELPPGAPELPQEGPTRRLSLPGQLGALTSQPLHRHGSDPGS
Chain of Cytochrome P450 2C9 (P11712 whole entry): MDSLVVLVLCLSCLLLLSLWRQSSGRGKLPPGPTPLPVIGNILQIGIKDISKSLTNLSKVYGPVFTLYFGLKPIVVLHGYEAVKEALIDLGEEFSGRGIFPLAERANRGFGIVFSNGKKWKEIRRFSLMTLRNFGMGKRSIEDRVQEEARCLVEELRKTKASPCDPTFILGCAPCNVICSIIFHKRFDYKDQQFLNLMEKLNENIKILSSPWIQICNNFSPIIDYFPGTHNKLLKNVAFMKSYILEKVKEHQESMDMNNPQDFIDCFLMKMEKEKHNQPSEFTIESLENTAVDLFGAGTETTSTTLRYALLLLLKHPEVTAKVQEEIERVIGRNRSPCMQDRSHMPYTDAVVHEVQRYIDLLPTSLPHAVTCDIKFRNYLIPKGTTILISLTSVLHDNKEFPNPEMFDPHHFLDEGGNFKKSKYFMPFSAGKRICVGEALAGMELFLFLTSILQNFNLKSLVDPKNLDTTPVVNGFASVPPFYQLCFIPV

EC50 [1]: 0.043 nM
Cmax [2]: 156 ng/mL
half-life [17]: 46.8 min
Cmax [18]: 43.4 ng/mL
clearance [19]: 35 mL/min/kg
half-life [20]: 71.4 min
Tmax [21]: 25.2 min
Vd [22]: 2.94 L/kg
Cmax [23]: 125 ng/mL
CLint scaled at 1 µM [24]: 237 mL/min/kg
microsomal CLint at 1 µM [25]: 140 µL/min/mg
CLint scaled at 1 µM [26]: 342 mL/min/kg
fraction unbound at 6 h [27]: 0.695
IC50 (Cytochrome P450 3A4 [28]): > 30 µM
IC50 (Cytochrome P450 3A4 [29]): > 30 µM
IC50 (Cytochrome P450 2C9): > 30 µM
IC50 (Cytochrome P450 2D6): > 30 µM
SMILES: CC(C)(N)C(=O)N[C@H](COCc1ccccc1)C(=O)N1CCC2=NN(C3CC3)C(=O)[C@]2(Cc2ccccc2)C1
Activity (Rattus norvegicus [3]): 31.1 ng/mL
Activity (Rattus norvegicus [4]): 263.6 ng/mL
AUC (Rattus norvegicus [5]): 109 ng·h/mL
Activity (Rattus norvegicus [6]): 45.9 ng/mL
AUC (Rattus norvegicus [7]): 102 ng·h/mL
Activity (Rattus norvegicus [8]): 230.9 ng/mL
Activity (Rattus norvegicus [9]): 56.7 ng/mL
Activity (Rattus norvegicus [10]): 21.2 ng/mL
Activity (Rattus norvegicus [11]): 228.6 ng/mL
Activity (Rattus norvegicus [12]): 73.2 ng/mL
Activity (Rattus norvegicus [13]): 238.6 ng/mL
Activity (Rattus norvegicus [14]): 27.8 ng/mL
Activity (Rattus norvegicus [15]): Active
Activity (Rattus norvegicus [16]): Active
IC50 [30]: > 30 µM
Activity [31]: Non-toxic
Activity [32]: Non-toxic
Activity [33]: Non-toxic
Activity [34]: Non-toxic
Activity [35]: Non-toxic
Activity [36]: Non-toxic
